Test results: patent publication US20090181980A1, “Synergistic Pharmaceutical Composition” (priority 2006, published 2009)

Tested on: M. tuberculosis
Experiment: MIC alone and in combination (synergy test)
Assay type: cell-based, Mycobacterium tuberculosis
Conditions: for change of MIC when tested together: combination of Ethambutol and Isoniazid (negative control, FIG. 2)
Experimental: A sulfonylurea ALS inhibitor and a triazolopyrimidine ALS inhibitor were tested alone and in combination with Rifampicin. The positive controls used were Isoniazid and Streptomycin where one finds a synergistic action. The individual MICs of Isoniazid (INH) and Streptomycin (Strep) are 0.03 and 1.0 μg/ml respectively. When used in combination, these values drop to 0.0075 and 0.12 μg/ml respectively (cf. FIG. 1). This is 4 fold and 8 fold less.
The negative control used was a combination of Ethambutol (Etham) and Isoniazid (Inh) where there is no synergistic activity. […] In. Clinical Microbiology Procedures Handbook; Vol. 1-2 by Isenberg, Henry. D. Ed Washington D.C.; American Society for Microbiology/1992; Pages 5.18.1 to 5.18.28).
When used in combination, these MICs drop 0.0038 and 0.03 ug/ml respectively, which is 8-fold less for both the drugs.
When used in combination, these MICs drop to 0.0038 & 0.03 ug/ml which is 4 & 8-fold less for both the drugs.

[1] = combination of Isoniazid and Streptomycin versus individual MIC

| Compound | fold less MIC in combination (combination of Rifampicin and SU versus individual MIC) [fold] | fold less MIC in combination (combination of Rifampicin and TP versus individual MIC) [fold] | change of MIC when tested together | fold less MIC in combination [1] [fold] |
| --- | --- | --- | --- | --- |
| CO[C@H]1/C=C/O[C@@]2(C)Oc3c(C)c(O)c4c(O)c(c(/C=N/N5CCN(C)CC5)c(O)c4c3C2=O)NC(=O)/C(C)=C\C=C\[C@H](C)[C@H](O)[C@@H](C)[C@@H](O)[C@@H](C)[C@H](OC(C)=O)[C@@H]1C [Rifampicin] | 8 | 4 | – | – |
| CC[C@@H](CO)NCCN[C@@H](CC)CO [Ethambutol] | – | – | do not drop significantly | – |
| NNC(=O)c1ccncc1 [Isoniazid] | – | – | do not drop significantly | 4 |
| [H]/N=C(/N)N[C@H]1[C@H](O)[C@@H](O)[C@H](O[C@@H]2O[C@@H](C)[C@](O)(C=O)[C@H]2O[C@@H]2O[C@@H](CO)[C@H](O)[C@@H](O)[C@@H]2NC)[C@@H](N/C(N)=N\[H])[C@@H]1O [Streptomycin] | – | – | – | 8 |
